Measurements from patent US20230310428A1, “EGFR INHIBITOR AND PREPARATION METHOD AND USE THEREOF” (HONGYUN BIOTECH CO., LTD., priority 2020, published 2023).
Read-outs that look alike come from different tables or passages of the source.

What was measured:
Test in all cases: Growth inhibitory activity of compounds on BaF3 cell lines stably transfected with kinase (MTS, 48 h)
Type in all cases: cell-based
[1] = target: T1, various mutants of kinase EGFR (BaF3 cell lines stably transfected with kinase) (Homo sapiens, UniProt P00533)
T1 construct: other: BaF3 cells stably transfected with EGFR Δ19Del; MTS, 48 h; other: BaF3 cell line stably transfected with EGFR Δ19Del
How it was run: (§1)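 BaF3 cells stably transfected with EGFR mutants were exposed for 48 h at 37°C to 8 compound concentrations (top 10 µM, 1/3 dilutions, 0.1% DMSO). Growth was read by MTS at 490 nm after 1-4 h, in duplicate; IC50 was derived from inhibition rates versus DMSO control.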

[2] = target: T2, various mutants of kinase EGFR (BaF3 cell lines stably transfected with kinase) (Homo sapiens, UniProt P00533, C797S/L858R/T790M)
T2 construct: expressed in transfected cells; host or cells: BaF3
How it was run: as §1

[3] = target: T3, various mutants of kinase EGFR (BaF3 cell lines stably transfected with kinase) (Homo sapiens, UniProt P00533, L858R)
T3 construct: expressed in transfected cells; host or cells: BaF3
How it was run: as §1

[4] = target: T4, various mutants of kinase EGFR (BaF3 cell lines stably transfected with kinase) (Homo sapiens, UniProt P00533, L858R/T790M)
T4 construct: expressed in transfected cells; host or cells: BaF3
How it was run: as §1

[5] = target: T5, various mutants of kinase EGFR (BaF3 cell lines stably transfected with kinase) (Homo sapiens, UniProt P00533, T790M/C797S, form not given)
T5 construct: other: BaF3 cells stably transfected with EGFR Δ19Del/T790M/C797S; MTS, 48; other: BaF3 cell line stably transfected with EGFR Δ19Del/T790M/C7
How it was run: as §1

[6] = target: T6, various mutants of kinase EGFR (BaF3 cell lines stably transfected with kinase) (Homo sapiens, UniProt P00533, T790M, form not given)
T6 construct: other: BaF3 cells stably transfected with EGFR Δ19Del/T790M; MTS, 48 h; other: BaF3 cell line stably transfected with EGFR Δ19Del/T790M; MTS, 48
How it was run: as §1

[7] = BaF3 cell line stably transfected with EGFR Δ19Del, read-out: Δ19Del growth inhibitory activity IC50
[8] = BaF3 cell line stably transfected with EGFR L858R/T790M/C797S, read-out: L858R/T790M/ C797S growth inhibitory activity IC50
[9] = BaF3 cell line stably transfected with EGFR L858R, read-out: L858R growth inhibitory activity IC50
[10] = BaF3 cell line stably transfected with EGFR L858R/T790M, read-out: L858R/ T790M growth inhibitory activity IC50
[11] = BaF3 cell line stably transfected with EGFR Δ19Del/T790M/C797S, read-out: Δ19Del/T790M/ C797S growth inhibitory activity IC50
[12] = BaF3 cell line stably transfected with EGFR Δ19Del/T790M, read-out: Δ19Del/ T790M growth inhibitory activity IC50
[13] = BaF3 cells stably transfected with EGFR Δ19Del, read-out: IC50, growth inhibition, Δ19Del
[14] = BaF3 cells stably transfected with EGFR L858R/T790M/C797S, read-out: IC50, growth inhibition, L858R/T790M/C797S
[15] = BaF3 cells stably transfected with EGFR L858R, read-out: IC50, growth inhibition, L858R
[16] = BaF3 cells stably transfected with EGFR L858R/T790M, read-out: IC50, growth inhibition, L858R/T790M
[17] = BaF3 cells stably transfected with EGFR Δ19Del/T790M/C797S, read-out: IC50, growth inhibition, Δ19Del/T790M/C797S
[18] = BaF3 cells stably transfected with EGFR Δ19Del/T790M, read-out: IC50, growth inhibition, Δ19Del/T790M

T6 sequence (P00533 with tags, fused parts or gaps DEL746-750/T790M, form open): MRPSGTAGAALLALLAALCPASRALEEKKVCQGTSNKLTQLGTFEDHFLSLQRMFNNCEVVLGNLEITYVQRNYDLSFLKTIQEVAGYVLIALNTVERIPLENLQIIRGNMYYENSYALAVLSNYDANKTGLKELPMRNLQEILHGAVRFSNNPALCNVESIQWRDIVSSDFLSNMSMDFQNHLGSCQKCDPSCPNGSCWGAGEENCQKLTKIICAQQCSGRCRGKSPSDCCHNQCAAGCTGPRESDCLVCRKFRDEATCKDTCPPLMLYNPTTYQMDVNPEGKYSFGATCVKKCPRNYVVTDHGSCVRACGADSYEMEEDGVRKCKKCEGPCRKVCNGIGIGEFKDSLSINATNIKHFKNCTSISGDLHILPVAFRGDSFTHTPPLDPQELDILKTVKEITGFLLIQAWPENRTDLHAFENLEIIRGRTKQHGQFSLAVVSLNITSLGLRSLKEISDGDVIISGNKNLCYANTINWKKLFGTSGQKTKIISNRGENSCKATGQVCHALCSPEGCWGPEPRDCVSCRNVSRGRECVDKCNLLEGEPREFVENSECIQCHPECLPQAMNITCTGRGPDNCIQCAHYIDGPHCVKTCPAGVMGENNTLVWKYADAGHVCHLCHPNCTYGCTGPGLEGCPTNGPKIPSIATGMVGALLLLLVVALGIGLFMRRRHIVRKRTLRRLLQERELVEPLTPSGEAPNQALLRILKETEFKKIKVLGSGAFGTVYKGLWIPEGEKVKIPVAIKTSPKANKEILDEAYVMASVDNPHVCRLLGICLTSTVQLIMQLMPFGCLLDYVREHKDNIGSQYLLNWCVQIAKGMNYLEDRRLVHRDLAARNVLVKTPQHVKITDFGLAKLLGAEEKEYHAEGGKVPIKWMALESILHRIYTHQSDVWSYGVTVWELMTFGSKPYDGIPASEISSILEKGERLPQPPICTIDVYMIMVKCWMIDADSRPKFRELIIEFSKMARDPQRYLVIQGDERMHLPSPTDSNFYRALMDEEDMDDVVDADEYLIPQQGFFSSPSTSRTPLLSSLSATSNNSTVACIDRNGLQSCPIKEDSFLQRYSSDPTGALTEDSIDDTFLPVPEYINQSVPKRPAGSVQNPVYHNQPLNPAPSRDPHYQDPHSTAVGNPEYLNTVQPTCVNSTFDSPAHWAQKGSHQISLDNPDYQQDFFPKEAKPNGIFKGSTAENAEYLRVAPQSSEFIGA
T5 sequence (P00533 with tags, fused parts or gaps DEL746-750/T790M/C797S, form open): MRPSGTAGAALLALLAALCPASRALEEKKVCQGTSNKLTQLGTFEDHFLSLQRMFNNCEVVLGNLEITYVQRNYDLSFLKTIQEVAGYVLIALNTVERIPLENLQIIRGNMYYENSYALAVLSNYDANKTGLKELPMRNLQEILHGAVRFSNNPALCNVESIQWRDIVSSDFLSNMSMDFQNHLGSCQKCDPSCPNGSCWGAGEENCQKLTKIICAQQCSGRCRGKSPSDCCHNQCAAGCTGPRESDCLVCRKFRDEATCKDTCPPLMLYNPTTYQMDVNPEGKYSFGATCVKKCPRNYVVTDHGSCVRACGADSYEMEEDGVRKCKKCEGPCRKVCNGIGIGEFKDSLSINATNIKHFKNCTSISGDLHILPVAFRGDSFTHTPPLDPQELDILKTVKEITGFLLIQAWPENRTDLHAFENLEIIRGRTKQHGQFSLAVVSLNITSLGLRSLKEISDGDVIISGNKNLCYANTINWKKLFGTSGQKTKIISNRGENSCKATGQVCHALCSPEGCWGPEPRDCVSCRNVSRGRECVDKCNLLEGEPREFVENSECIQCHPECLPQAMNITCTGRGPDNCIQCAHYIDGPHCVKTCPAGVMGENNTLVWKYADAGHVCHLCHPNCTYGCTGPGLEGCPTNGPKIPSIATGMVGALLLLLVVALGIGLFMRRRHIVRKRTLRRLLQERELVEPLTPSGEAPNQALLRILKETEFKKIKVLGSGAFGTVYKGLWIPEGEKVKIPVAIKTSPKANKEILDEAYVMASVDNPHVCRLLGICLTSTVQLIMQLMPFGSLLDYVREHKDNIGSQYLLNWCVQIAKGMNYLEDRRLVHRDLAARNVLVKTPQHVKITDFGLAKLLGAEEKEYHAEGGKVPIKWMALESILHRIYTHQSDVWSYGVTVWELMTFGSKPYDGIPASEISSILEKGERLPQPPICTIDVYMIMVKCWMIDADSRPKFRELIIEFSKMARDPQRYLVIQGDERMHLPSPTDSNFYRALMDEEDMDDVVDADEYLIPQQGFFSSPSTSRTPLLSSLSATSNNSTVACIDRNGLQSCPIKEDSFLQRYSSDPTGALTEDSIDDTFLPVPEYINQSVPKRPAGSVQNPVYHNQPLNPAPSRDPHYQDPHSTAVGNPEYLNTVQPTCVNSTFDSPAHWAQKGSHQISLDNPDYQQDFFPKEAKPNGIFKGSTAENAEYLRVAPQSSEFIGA
T3 sequence (P00533 25-1210 L858R): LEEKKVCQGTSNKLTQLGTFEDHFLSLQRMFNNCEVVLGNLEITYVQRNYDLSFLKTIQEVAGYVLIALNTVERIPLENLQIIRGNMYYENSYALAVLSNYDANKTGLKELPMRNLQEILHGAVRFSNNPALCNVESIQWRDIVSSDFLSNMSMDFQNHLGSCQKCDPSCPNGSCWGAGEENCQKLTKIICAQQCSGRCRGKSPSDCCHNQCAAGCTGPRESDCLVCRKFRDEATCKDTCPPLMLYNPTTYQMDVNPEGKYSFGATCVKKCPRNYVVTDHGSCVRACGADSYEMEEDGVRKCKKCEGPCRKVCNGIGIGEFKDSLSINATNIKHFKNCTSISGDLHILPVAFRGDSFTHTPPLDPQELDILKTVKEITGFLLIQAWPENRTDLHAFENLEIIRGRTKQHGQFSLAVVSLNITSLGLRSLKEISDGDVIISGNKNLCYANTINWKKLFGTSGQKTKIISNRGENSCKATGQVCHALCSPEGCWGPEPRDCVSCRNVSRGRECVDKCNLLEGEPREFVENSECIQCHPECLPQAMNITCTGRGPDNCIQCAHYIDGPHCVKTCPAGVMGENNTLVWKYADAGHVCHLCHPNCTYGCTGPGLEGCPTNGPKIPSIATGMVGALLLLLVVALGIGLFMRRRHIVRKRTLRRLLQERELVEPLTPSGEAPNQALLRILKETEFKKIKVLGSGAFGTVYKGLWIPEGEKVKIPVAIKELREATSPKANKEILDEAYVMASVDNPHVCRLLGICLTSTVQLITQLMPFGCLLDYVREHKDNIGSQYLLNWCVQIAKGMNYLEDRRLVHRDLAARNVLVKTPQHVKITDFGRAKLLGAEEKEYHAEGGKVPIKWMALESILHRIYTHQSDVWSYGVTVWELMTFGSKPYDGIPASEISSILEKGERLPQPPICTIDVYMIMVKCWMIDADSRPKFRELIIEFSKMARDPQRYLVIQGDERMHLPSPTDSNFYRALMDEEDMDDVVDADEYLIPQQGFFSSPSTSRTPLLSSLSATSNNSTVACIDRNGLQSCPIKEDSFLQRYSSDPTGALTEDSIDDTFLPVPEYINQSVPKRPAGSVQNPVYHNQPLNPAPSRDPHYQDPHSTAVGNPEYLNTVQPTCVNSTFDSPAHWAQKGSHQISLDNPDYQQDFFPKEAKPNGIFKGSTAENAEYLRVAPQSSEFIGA
T2 sequence (P00533 25-1210 T790M/C797S/L858R): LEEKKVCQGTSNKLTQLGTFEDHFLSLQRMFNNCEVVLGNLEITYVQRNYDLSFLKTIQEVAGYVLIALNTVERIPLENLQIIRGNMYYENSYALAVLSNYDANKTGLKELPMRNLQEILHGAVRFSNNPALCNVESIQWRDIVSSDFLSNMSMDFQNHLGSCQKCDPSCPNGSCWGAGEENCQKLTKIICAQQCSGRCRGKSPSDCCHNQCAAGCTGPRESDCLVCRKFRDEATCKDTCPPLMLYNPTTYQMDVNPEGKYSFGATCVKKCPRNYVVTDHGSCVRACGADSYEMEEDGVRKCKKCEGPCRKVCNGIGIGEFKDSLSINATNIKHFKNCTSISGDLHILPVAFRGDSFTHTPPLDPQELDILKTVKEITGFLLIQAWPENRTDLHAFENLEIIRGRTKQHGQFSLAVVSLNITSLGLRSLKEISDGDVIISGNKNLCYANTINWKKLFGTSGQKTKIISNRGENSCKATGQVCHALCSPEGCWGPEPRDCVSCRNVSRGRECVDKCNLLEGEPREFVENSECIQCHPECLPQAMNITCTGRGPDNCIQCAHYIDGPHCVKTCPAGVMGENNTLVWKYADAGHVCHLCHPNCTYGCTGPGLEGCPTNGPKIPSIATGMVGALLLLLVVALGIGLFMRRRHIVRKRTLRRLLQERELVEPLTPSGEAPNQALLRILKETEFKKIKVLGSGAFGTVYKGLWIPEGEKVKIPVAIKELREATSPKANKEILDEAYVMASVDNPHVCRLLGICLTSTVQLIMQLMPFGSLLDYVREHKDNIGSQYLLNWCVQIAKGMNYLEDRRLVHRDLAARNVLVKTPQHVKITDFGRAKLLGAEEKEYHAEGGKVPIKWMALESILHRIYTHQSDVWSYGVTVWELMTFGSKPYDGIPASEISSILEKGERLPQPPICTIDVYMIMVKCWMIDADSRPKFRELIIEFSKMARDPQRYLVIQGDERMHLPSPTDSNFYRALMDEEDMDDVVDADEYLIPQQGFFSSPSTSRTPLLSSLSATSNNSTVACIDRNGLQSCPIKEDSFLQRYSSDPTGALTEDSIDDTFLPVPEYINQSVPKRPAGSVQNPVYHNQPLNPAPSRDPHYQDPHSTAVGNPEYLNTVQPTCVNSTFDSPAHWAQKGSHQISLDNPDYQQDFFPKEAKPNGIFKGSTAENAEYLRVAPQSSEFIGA

| Structure (SMILES) | IC50 [1, 7] [nM] | IC50 [2, 8] [nM] | IC50 [3, 9] [nM] | IC50 [4, 10] [nM] | IC50 [5, 11] [nM] | IC50 [6, 12] [nM] | IC50 [1, 13] [nM] | IC50 [2, 14] [nM] | IC50 [3, 15] [nM] | IC50 [4, 16] [nM] | IC50 [5, 17] [nM] | IC50 [6, 18] [nM] |
| --- | --- | --- | --- | --- | --- | --- | --- | --- | --- | --- | --- | --- |
| COc1cc(N2CCC(N(C)C)C2)c(C)cc1Nc1nc(Nc2ccc3nccnc3c2N(C)S(C)(=O)=O)c2[nH]ccc2n1 (stereo not drawn) [II-1-35] | 500 to 2500 | 500 to 2500 | 500 to 2500 | 500 to 2500 | 500 to 2500 | 500 to 2500 | – | – | – | – | – | – |
| COc1cc(N2CCC(N3CCN(C)CC3)CC2)c(C)cc1Nc1ncc(F)c(Nc2ccc3nccnc3c2N(C)S(=O)(=O)C2CC2)n1 [Compound I-248] | – | – | – | – | – | – | ≤ 50 | 50 to 500 | ≤ 50 | ≤ 50 | ≤ 50 | 50 to 500 |
| CCc1cc(Nc2ncc(Br)c(Nc3ccc4nccnc4c3N(C)S(=O)(=O)C(C)C)n2)c(OC)cc1N1CCC(N(C)C)C1 (stereo not drawn) [Compound I-138] | – | – | – | – | – | – | 50 to 500 | 50 to 500 | 50 to 500 | ≤ 50 | ≤ 50 | 50 to 500 |
| CCc1cc(Nc2ncc(Cl)c(Nc3ccc4nccnc4c3N(CC)S(C)(=O)=O)n2)c(OC)cc1N1CCC(N2CCN(C)CC2)CC1 [Compound I-110] | – | – | – | – | – | – | ≤ 50 | ≤ 50 | ≤ 50 | ≤ 50 | ≤ 50 | ≤ 50 |
| CCc1cc(Nc2ncc(Br)c(Nc3ccc4nccnc4c3N(C)S(=O)(=O)CC)n2)c(OC)cc1N1CCC(N(C)C)CC1 [Compound I-102] | – | – | – | – | – | – | ≤ 50 | ≤ 50 | ≤ 50 | ≤ 50 | ≤ 50 | ≤ 50 |
| CCc1cc(Nc2ncc(Br)c(Nc3ccc4nccnc4c3N(C)S(C)(=O)=O)n2)c(OC)cc1N1CCN(C2CN(C)C2)CC1 [Compound I-398] | ≤ 50 | ≤ 50 | ≤ 50 | ≤ 50 | ≤ 50 | ≤ 50 | – | – | – | – | – | – |
| CCc1cc(Nc2ncc(Cl)c(Nc3ccc4nccnc4c3N(C)S(=O)(=O)C(F)(F)F)n2)c(OC)cc1N1CCC(N2CCN(C)CC2)CC1 [Compound I-130] | – | – | – | – | – | – | 50 to 500 | 50 to 500 | 50 to 500 | 50 to 500 | 50 to 500 | ≤ 50 |
| CCn1cc(Nc2ncc(Br)c(Nc3ccc4nccnc4c3N(C)S(C)(=O)=O)n2)cn1 [Compound I-386] | 50 to 500 | 50 to 500 | 50 to 500 | 50 to 500 | ≤ 50 | 50 to 500 | – | – | – | – | – | – |
| COc1cc(N2CCC(N3CCN(C)CC3)CC2)c(C(C)C)cc1Nc1ncc(Br)c(Nc2ccc3nccnc3c2NS(C)(=O)=O)n1 [Compound I-406] | 50 to 500 | 50 to 500 | 50 to 500 | 50 to 500 | 50 to 500 | 50 to 500 | – | – | – | – | – | – |
| CN1CCN(Cc2cc(Nc3ncc(Br)c(Nc4ccc5nccnc5c4N(C)S(C)(=O)=O)n3)cc(C(F)(F)F)c2)CC1 [Compound I-82] | – | – | – | – | – | – | 50 to 500 | 50 to 500 | 50 to 500 | ≤ 50 | 50 to 500 | 50 to 500 |
| CCc1cc(Nc2ncc(C)c(Nc3ccc4nccnc4c3N(C)S(C)(=O)=O)n2)c(OC)nc1N1CCC(N2CCN(C)CC2)CC1 [Compound I-278] | – | – | – | – | – | – | ≤ 50 | ≤ 50 | ≤ 50 | ≤ 50 | ≤ 50 | ≤ 50 |
| CCn1ccc(Nc2ncc(Br)c(Nc3ccc4nccnc4c3N(C)S(C)(=O)=O)n2)n1 [Compound I-383] | 50 to 500 | ≤ 50 | 50 to 500 | 50 to 500 | 50 to 500 | 50 to 500 | – | – | – | – | – | – |
| CCc1cc(Nc2nc(Nc3ccc4nccnc4c3N(C)S(C)(=O)=O)c3occc3n2)c(OC(F)(F)F)cc1N1CCC(N2CCN(C)CC2)CC1 [II-1-41] | 500 to 2500 | 50 to 500 | 50 to 500 | 500 to 2500 | 50 to 500 | 500 to 2500 | – | – | – | – | – | – |
| CCc1cc(Nc2ncc(Br)c(Nc3ccc4nccnc4c3N(C)S(C)(=O)=O)n2)ccc1N1CCC(N2CCN(C)CC2)CC1 [Compound I-286] | – | – | – | – | – | – | ≤ 50 | ≤ 50 | ≤ 50 | ≤ 50 | ≤ 50 | ≤ 50 |
| COc1cc(N2CCN(C)CC2)c(C)cc1Nc1ncc(Br)c(Nc2ccc3nccnc3c2N(C2CC2)S(C)(=O)=O)n1 [Compound I-309] | 50 to 500 | ≤ 50 | ≤ 50 | ≤ 50 | ≤ 50 | ≤ 50 | – | – | – | – | – | – |
| CCc1cc(Nc2ncc(Br)c(Nc3ccc4nccnc4c3N(C)S(C)(=O)=O)n2)c(OC)cc1NCCO [Compound I-390] | 500 to 2500 | ≤ 50 | 50 to 500 | 50 to 500 | 50 to 500 | 50 to 500 | – | – | – | – | – | – |

The remaining lines, values ahead:

| IC50 [1, 7] [nM] | IC50 [2, 8] [nM] | IC50 [3, 9] [nM] | IC50 [4, 10] [nM] | IC50 [5, 11] [nM] | IC50 [6, 12] [nM] | IC50 [1, 13] [nM] | IC50 [2, 14] [nM] | IC50 [3, 15] [nM] | IC50 [4, 16] [nM] | IC50 [5, 17] [nM] | IC50 [6, 18] [nM] | Structure (SMILES) |
| --- | --- | --- | --- | --- | --- | --- | --- | --- | --- | --- | --- | --- |
| 500 to 2500 | 500 to 2500 | 500 to 2500 | 500 to 2500 | 500 to 2500 | 500 to 2500 | – | – | – | – | – | – | COc1cc(N2CCC(N3CCN(C)CC3)CC2)ccc1Nc1nc(Nc2ccc3nccnc3c2N(C)S(C)(=O)=O)c2occc2n1 [II-1-24] |
| – | – | – | – | – | – | 50 to 500 | 50 to 500 | 50 to 500 | 50 to 500 | 50 to 500 | 50 to 500 | COc1nc(N2CCN(C)CC2)ccc1Nc1ncc(Br)c(Nc2ccc3nccnc3c2N(C)S(C)(=O)=O)n1 [Compound I-55] |
| – | – | – | – | – | – | 50 to 500 | 500 to 2500 | 50 to 500 | 500 to 2500 | 50 to 500 | 500 to 2500 | COc1cc(N2CCC(N3CCN(C)CC3)CC2)ccc1Nc1ncc(F)c(Nc2ccc3nccnc3c2N(C)S(=O)(=O)C2CC2)n1 [Compound I-247] |
| 50 to 500 | ≤ 50 | 50 to 500 | ≤ 50 | ≤ 50 | 50 to 500 | – | – | – | – | – | – | COc1ccc(N2CCC(O)CC2)cc1Nc1ncc(Cl)c(Nc2ccc3nccnc3c2N(C)S(C)(=O)=O)n1 [Compound I-368] |
| – | – | – | – | – | – | ≤ 50 | ≤ 50 | ≤ 50 | ≤ 50 | ≤ 50 | ≤ 50 | COc1cc(N2CCC(N3CCN(C)CC3)CC2)c(C)cc1Nc1ncc(Br)c(Nc2ccc3nccnc3c2N(C)S(C)(=O)=O)n1 [Compound I-2] |
| – | – | – | – | – | – | ≤ 50 | ≤ 50 | ≤ 50 | ≤ 50 | ≤ 50 | 50 to 500 | COc1cc(N2CCC(N(C)C)CC2)c(C)cc1Nc1ncc(F)c(Nc2ccc3nccnc3c2N(C)S(C)(=O)=O)n1 [Compound I-183] |
| – | – | – | – | – | – | ≤ 50 | ≤ 50 | ≤ 50 | ≤ 50 | ≤ 50 | ≤ 50 | CCc1cc(Nc2ncc(C3CC3)c(Nc3ccc4nccnc4c3N(C)S(C)(=O)=O)n2)c(OC)cc1N1CCC(N(C)C)CC1 [Compound I-273] |
| – | – | – | – | – | – | ≤ 50 | ≤ 50 | ≤ 50 | ≤ 50 | ≤ 50 | ≤ 50 | CCc1cc(Nc2ncc(Cl)c(Nc3ccc4nccnc4c3N(C)S(C)(=O)=O)n2)c(OC)cc1N1CCC(N2CCN(C)CC2)CC1 [Compound I-20] |
| ≤ 50 | ≤ 50 | ≤ 50 | ≤ 50 | ≤ 50 | ≤ 50 | – | – | – | – | – | – | CCc1cc(Nc2ncc(C(C)C)c(Nc3ccc4nccnc4c3N(C)S(C)(=O)=O)n2)c(OC)cc1N1CCC(N(C)C)CC1 [Compound I-330] |
| – | – | – | – | – | – | 50 to 500 | 50 to 500 | 50 to 500 | ≤ 50 | ≤ 50 | ≤ 50 | CCS(=O)(=O)N(C)c1c(Nc2nc(Nc3ccc(N4CCC(N5CCN(C)CC5)CC4)cc3OC)ncc2Br)ccc2nccnc12 [Compound I-214] |
| – | – | – | – | – | – | 50 to 500 | 50 to 500 | 50 to 500 | 50 to 500 | ≤ 50 | 50 to 500 | CN1CCN(C2CCN(c3ccc(Nc4ncc(Br)c(Nc5ccc6nccnc6c5N(C)S(C)(=O)=O)n4)c(OC(F)(F)F)c3)CC2)CC1 [Compound I-7] |
